Results published in patent EP3917907B1, “MODULATORS OF POTASSIUM ION CHANNELS AND USES THEREOF” (Universitá Degli Studi Di Salerno, priority 2019, dated 2020).

What was measured:
[1] = Photostability (HPLC, solar simulator irradiation); type: physicochemical; conditions: percentage of degradation after 6 h irradiation with solar simulator; 100 ppm in extracellular solution pH 7.4
Experimental: (§1) In order to study the solution stability and photostability of the potassium channel modulators object of the present invention, a stock solution of the proper analyte (1 mg/mL) in dimethylsulfoxide (DMSO) has been prepared. This solution has been then diluted to a concentration of 100 ppm using extracellular solution containing (in mM): 138 NaCl, 2 CaCl2, 5.4 KCl, 1 MgCl2, 10 glucose, and 10 HEPES, at pH 7.4, adjusted with NaOH. To measure solution stability, the diluted solutions have been maintained at ambient temperature for 6 h. To measure photostability, the diluted solutions have been irradiated for 6 h using a Oriel Sol3A Solar Simulator (Newport corporation, Irvine, CA, USA) with a 12x12 inches output beam. Aliquots of solution have been withdrawn after 6h and analyzed by HPLC using a Kinetex C18, 150 mm × 4.6 mm × 2.6 µm (Phenomenex, Bologna, Italy) as stationary phase and a mobile phase constituted by A: H2O/CH3CN (80:20) and B: CH3CN. Gradient elution has been performed from 20% to 90% of B in 7.50 minutes and from 90% to 20% of B in 1 minute. The pump flux has been set to 1.5 mL/min. Column has been thermostatted at 40°C during analysis. Results are espressed in Table 3 as percentage of degradation of the product calculated as ratio between the peak area of the analyte at time 0 (Pa0) and after 6h (Pa6) using the following formula: % degradation = (Pa0−Pa6)/Pa0 *100. [formula]

[2] = Solution stability (HPLC, extracellular solution, ambient temperature); type: physicochemical; conditions: percentage of degradation after 6 h at ambient temperature; 100 ppm in extracellular solution pH 7.4
Experimental: as §1

[3] = target: T1, Kv7.2 (Homo sapiens, UniProt O43526); assay: Whole-cell patch-clamp on CHO cells transiently expressing Kv7.2; type: cell-based; conditions: CHO cells, mean±SEM, >1 activating, <1 inhibiting; for Idrug/Ictl at 0 mV: ratio of ramp-evoked Kv7.2 current amplitude in presence and absence of drug at 0 mV; for Idrug/Ictl at -40 mV: ratio of ramp-evoked Kv7.2 current amplitude in presence and absence of drug at -40 mV
T1 construct: expressed in transfected cells; host or cells: CHO cells (ATCC CRL-9618), transient transfection, pcDNA3.1(+)
Experimental: According to the experimental protocol, these plasmids were expressed individually or in combination (in particular of Kv7.2 and Kv7.3), together with a plasmid-expressing enhanced green fluorescent protein (Clontech, Palo Alto, CA) used as a transfection marker. Total cDNA in the transfection mixture was kept at 4 µg. CHO cells were grown in 100-mm plastic Petri dishes in Dulbecco's modified Eagle's medium containing 10% fetal bovine serum, nonessential amino acids (0.1 mM), penicillin (50 U/ml), and streptomycin ([…]) in a humidified atmosphere at 37°C with 5% CO2. The cells were plated on glass coverslips coated with poly-L-lysine, and transfected one day after plating with the appropriate cDNA using Lipofectamine 2000 (Life Technologies), according to the manufacturer's protocol.
Currents from CHO cells were recorded at room temperature (20-22°C) 24 hours after trasfection using the whole-cell configuration of the patch-clamp technique, with glass micropipettes of 3-5 MΩ resistance. During the recording, constant perfusion of extracellular solution was maintained. The extracellular solution contained (in mM): 138 NaCl, 2 CaCl2, 5.4 KCl, 1 MgCl2, 10 glucose, and 10 HEPES, at pH 7.4, adjusted with NaOH. The pipette (intracellular) solution contained (in mM): 140 KCl, 2 MgCl2, 10 EGTA, 10 HEPES, 5 Mg^2+-ATP, at pH 7.3-7.4, adjusted with KOH. Currents were recorded using an Axopatch-200A amplifier, filtered at 5 kHz, and digitized using a DigiData 1440A (Molecular Devices). The pCLAMP software (version 10.2, Molecular Devices) was used for data acquisition and analysis. To evaluate the activity of exemplary compounds on Kv7.2 (see Table 1), as well as on Kv7.1, Kv7.2/7.3, Kv7.3 and Kv7.4 channels for selected compounds (see Table 2), the cells were clamped at -80 mV and currents were elicited by 3-s voltage ramps from -80 mV to +20 mV in the presence and absence of each compound. […] The effects of drugs were expressed as shift in the ramp-voltage (ΔV) calculated at 20% of the maximal current (Miceli et al, Proc Natl Acad Sci U S A. 2013, 110(11):4386-91). Curves were fitted using the following equation: y=max/(1+x/EC50)n, where x is the drug concentration, n is the Hill coefficient and max is the maximal value achieved, as previously described (Ambrosino et al, Br J Pharmacol. 2013, 168(6):1430-1444). Data analysis and fit were performed using Sigmaplot (version 12.3).
Ramp-evoked Kv7.2 currents were analyzed by measuring the currents at -40 mV (a membrane potential value close to the activation threshold) and at 0 mV (a membrane potential value at which Kv7.2 conductance is largely saturated). In particular, -40 mV represents the threshold potential for spike initiation and 0 mV represents instead the membrane potential value at which maximal conductance of the channel is achieved.
In Table 1, the effect of exemplary compounds of the invention is expressed as the ratio between current amplitude in the presence (Idrug) and absence (Ictl) of the drug at these two membrane voltages. […]

Compound | Photostability [1] | Solution stability [2] | Idrug/Ictl at 0 mV [3] | Idrug/Ictl at -40 mV [3]
O=C(Nc1ccc2c(c1)CCN2Cc1ccc(F)cc1)NC1CCCCC1 [1-cyclohexyl-3-(1-(4-fluorobenzyl)indolin-5-yl)urea] | B (20%< degradation<40%) | A (degradation lower than 20%) | 0.85±0.12 | 0.95±0.16
COCCOCC(=O)Nc1ccc2c(ccn2Cc2ccc(C(F)(F)F)cc2)c1 [2-(2-methoxyethoxy)-N-(1-(4-(trifluoromethyl)benzyl)-1H-indol-5-yl)acetamide] | A (degradation lower than 20%) | A (degradation lower than 20%) | 0.86±0.01 | 1.50±0.16
O=S(=O)(CCC1CCCCC1)Nc1ccc2c(ccn2Cc2ccc(F)cc2)c1 [2-cyclohexyl-N-(1-(4-fluorobenzyl)-1H-indol-5-yl)ethane-1-sulfonamide] | A (degradation lower than 20%) | A (degradation lower than 20%) | 1.18±0.09 | 1.64±0.10
O=C(CC1CCCCC1)Nc1ccc2c(c1)CCN2Cc1ccc(F)cc1 [2-cyclohexyl-N-(1-(4-fluorobenzyl)indolin-5-yl)acetamide] | A (degradation lower than 20%) | A (degradation lower than 20%) | 1.71±0.12 | 2.37±0.40
CC(C)(C)CC(=O)Nc1ccc2c(ccn2Cc2ccc(C(F)(F)F)cc2)c1 [3,3-dimethyl-N-(1-(4-(trifluoromethyl)benzyl)-1H-indol-5-yl)butanamide] | A (degradation lower than 20%) | A (degradation lower than 20%) | 3.54±0.88 | 8.23±1.36
COCCOCCC(=O)Nc1ccc2c(ccn2Cc2ccc(C(F)(F)F)cc2)c1 [3-(2-methoxyethoxy)-N-(1-(4-(trifluoromethyl)benzyl)-1H-indol-5-yl)propanamide] | A (degradation lower than 20%) | A (degradation lower than 20%) | 1.34±0.10 | 2.64±0.77
CC(C)[C@H]1CC[C@H](C)C[C@@H]1OC(=O)Nc1ccc2c(c1)CCN2Cc1ccc(F)cc1 [(1S,2R,5S)-2-isopropyl-5-methylcyclohexyl (1-(4-fluorobenzyl)indolin-5-yl)carbamate] | B (20%< degradation<40%) | A (degradation lower than 20%) | 0.48±0.07 | 0.80±0.14
O=S(=O)(Nc1ccc2c(c1)CCN2Cc1ccc(C(F)(F)F)cc1C(F)(F)F)C1CCCCC1 [N-(1-(2,4-bis(trifluoromethyl)benzyl)indolin-5-yl)cyclohexanesulfonamide] | C (degradation > 40%) | B (20%< degradation<40%) | 1.22±0.11 | 1.53±0.39
O=S(=O)(Nc1ccc2c(c1)CCN2Cc1ccc(F)cc1F)C1CCCCC1 [N-(1-(2,4-difluorobenzyl)indolin-5-yl)cyclohexanesulfonamide] | C (degradation > 40%) | C (degradation > 40%) | 3.79±1.09 | 5.82±1.38
O=C(Cc1ccc(Cl)cc1)N1CCc2cc(NS(=O)(=O)C3CCCCC3)ccc21 [N-(1-(2-(4-chlorophenyl)acetyl)indolin-5-yl)cyclohexanesulfonamide] | B (20%< degradation<40%) | A (degradation lower than 20%) | 1.18±0.08 | 1.45±0.08
O=S(=O)(Nc1ccc2c(c1)CCN2Cc1ccc(F)c(F)c1)C1CCCCC1 [N-(1-(3,4-difluorobenzyl)indolin-5-yl)cyclohexanesulfonamide] | C (degradation > 40%) | C (degradation > 40%) | 2.11±0.18 | 4.56±1.11
O=S(=O)(Nc1ccc2c(ccn2Cc2ccc(C(F)(F)F)cc2)c1)C1CCCCC1 [N-(1-(4-(trifluoromethyl)benzyl)-1H-indol-5-yl)cyclohexanesulfonamide] | A (degradation lower than 20%) | A (degradation lower than 20%) | 1.93±0.19 | 2.27±0.49
O=S(=O)(Nc1ccc2c(c1)CCN2Cc1ccc(C(F)(F)F)cc1)C1CCCCC1 [N-(1-(4-(trifluoromethyl)benzyl)indolin-5-yl)cyclohexanesulfonamide] | C (degradation > 40%) | C (degradation > 40%) | 2.37±0.58 | 3.2±0.20
O=[N+]([O-])c1cc(Br)ccc1CN1CCc2cc(NS(=O)(=O)C3CCCCC3)ccc21 [N-(1-(4-bromo-2-nitrobenzyl)indolin-5-yl)cyclohexanesulfonamide] | C (degradation > 40%) | B (20%< degradation<40%) | 3.09±0.52 | 7.27±1.32
O=C(c1ccc(F)cc1)N1CCc2cc(NS(=O)(=O)C3CCCCC3)ccc21 [N-(1-(4-fluorobenzoyl)indolin-5-yl)cyclohexanesulfonamide] | B (20%< degradation<40%) | A (degradation lower than 20%) | 1.22±0.07 | 1.85±0.30
O=S(=O)(Nc1ccc2c(ccn2Cc2ccc(F)cc2)c1)C1CCCCC1 [N-(1-(4-fluorobenzyl)-1H-indol-5-yl)cyclohexanesulfonamide] | A (degradation lower than 20%) | A (degradation lower than 20%) | 2.76±0.19 | 4.71±1.31
CC(C)CS(=O)(=O)Nc1ccc2c(c1)CCN2Cc1ccc(F)cc1 [N-(1-(4-fluorobenzyl)indolin-5-yl)-2-methylpropane-1-sulfonamide] | C (degradation > 40%) | C (degradation > 40%) | 1.93±0.32 | 2.55±0.79
CC1CC(C)CN(S(=O)(=O)Nc2ccc3c(c2)CCN3Cc2ccc(F)cc2)C1 (stereo not drawn) [N-(1-(4-fluorobenzyl)indolin-5-yl)-3,5-dimethylpiperidine-1-sulfonamide] | B (20%< degradation<40%) | B (20%< degradation<40%) | 1.87±0.22 | 1.91±0.44
